Results from patent publication US20260130906A1, “THERAPY COMPRISING ANTI-CD19 ANTIBODY AND SUMO-ACTIVATING ENZYME INHIBITOR” (TAKEDA PHARMACEUTICAL COMPANY LIMITED, priority 2021, published 2026).

Columns and labels:
RAMOS = assay: ADCP assay (macrophages); type: cell-based; details: macrophages pre-treated 1 μM TAK-981 and/or 1 nM tafasitamab, E:T 2:1, 3 h, FIG. 4
Description: Monocytes were positively selected from PBMCs using CD14 MicroBeads on a MACS LS column according to the manufacturer's protocol (Miltenyi Biotec). Isoltaed cells were re-suspended in RPMI medium supplemented with 10% FCS and 1× GlutaMax. Monocytes were maturated into macrophages in T-flasks for 6 to 7 days in the presence of 50 ng/ml M-CSF.
After maturation, macrophages were stained with 2 μM CFSE and detached using 5 mM EDTA and scraping. After washing with PBS, macrophages were re-suspended in medium containing either DMSO (negative control) or 1 μM TAK-981 and allowed to re-attach in 96 well culture plates for 16-24 hours. Target cells were stained using the CellTrace Violet Cell Proliferation Kit (Invitrogen) and co-cultured with pre-treated macrophages in the presence or absence of 1 nM tafasitamab for 3 hours at an E:T ratio of 2:1. The cells were detached using 0.05% Trypsin-EDTA and transferred into multi-well flow cytometry plates. Using flow cytometry the percentage of phagocytosis was evaluated, defined as the percentage of double positive cells out of all CellTrace Violet positive cells.

lymphoma cell lines = assay: ADCC assay (PBMC effector cells); type: cell-based; details: PBMCs pre-treated 0.1 μM TAK-981 17-24 h and/or 1 nM tafasitamab; E:T 10:1; 2 h; FIG. 1
Description: A panel of 9 aggressive lymphoma cell lines was analyzed (7 DLBCL and 2 Burkitt lymphoma). OCI-LY10 and TMD8 cells were cultured in Iscove's modified Dulbecco medium supplemented with either 20% human plasma or 10% FCS. All other cell lines were cultured in RPMI medium (Gibco) supplemented with 10%-20% FCS (Sigma). Cells were cultured at 37° C. in 5% CO2.
Whole Blood was collected from healthy volunteers. PBMCs were isolated via density-gradient centrifugation using Biocoll (Biochrome) or Pancoll (PAN Biotech) separating solution and SepMate tubes (STEMCELL Technologies).
PBMC effector cells were treated with 0.1 μM TAK-981 or DMSO as negative control for 17-24 hours. Target cells were stained with 1 μM carboxyfluorescein succinimidyl ester (CFSE). Subsequently, target cells were incubated with pre-treated PBMCs at an effector to target (E:T) ratio of 10:1 in the presence or absence of 1 nM tafasitamab for 2 hours at 37° C. and 5% CO2. Dead cells were stained with 1 μg/ml 4′,6-diamidino-2-phenylindole (DAPI) and flow cytometry was used to determine cytotoxicity against target cells: Cells were gated for viable (DAPI negative) and dead target cells (DAPI positive). The specific cytotoxicity was defined as the percentages of dead target cells in the treated sample substracted by the percentage of dead target cells in the control sample without antibody.

[1] = test system: OCI-Ly10 human xenograft tumor model; assay: Study 2: OCI-Ly10 human xenograft tumor model; type: in vivo, CB17 SCID mice; details: for GRI % / Tumor volume on Day 25 (±SEM): OCI-Ly10; for GRI %: Day 25, vs vehicle; for Tumor volume on Day 25 (±SEM): in mm³ (unit assumed); for tumor growth inhibition as a single agent (in words): human OCI-Ly10 DLBCL mouse model
Description: The differences in the tumor growth trends over time between pairs of treatment groups were assessed by fitting each animal's data to a simple exponential growth model and comparing the mean growth rates of the two groups, as described in more detail below. The difference in the growth rates was summarized by the GRI, which is the reduction in growth rate experienced by the treatment group relative to that of the reference group, expressed as a fraction of the vehicle growth rate.
A GRI greater than 100% is interpreted as tumor regression when the vehicle group is the same as the reference group. A negative value of the GRI means that the tumors in the treatment group grew faster than the tumors in the reference group. Statistical significance was determined using an unpaired t-test.
Low tumor volumes can cause problems with the data analysis, so all measurements below 25 cubic mm (including 0 values) were excluded from the analysis. After this exclusion step, the tumor volume was assumed to follow an exponential growth model. More specifically, for a given animal and treatment group,
Combination analysis was performed to determine if there was a benefit from combining drug treatments. This analysis was also based on the estimated tumor growth rates. The measure of synergy was defined as
Here, μAB, μA, μB, and μControl are the mean growth rates for the combination, drug A, drug B, and control groups, respectively. As before, μV is the mean tumor growth rate for the vehicle group, which in most cases is the same as the control group. The standard error of the synergy score was calculated as the square root of the sum of squared standard errors across the four groups. The degrees of freedom were estimated using the Welch-Satterthwaite equation. A hypothesis test was performed to determine if the synergy score differed from 0. P-values were calculated by dividing the synergy score by its standard error and tested against a t-distribution (two-tailed) with the above-calculated degrees of freedom. A P value of less than 0.05 is statistically significant.
The combination results can be interpreted as follows. Statistically significant negative synergy scores indicate a synergistic combination (“Syn.”). Statistically significant positive synergy scores indicate a sub-additive combination (“Sub-add.”) when the combination performs better (i.e. has a lower growth rate) than the best performing single agent. Statistically significant positive synergy scores indicate an antagonistic combination (“Antag.”) when the combination performs worse than the best performing single agent. Scores that are not statistically significant should be considered additive (“Add.”).
OCI-Ly10 is a human DLBCL cell line. An OCI-Ly10 human xenograft tumor model was generated by subcutaneous inoculation in the flank of 8 week old female CB17 SCID mice (Charles River Laboratories, Wilmington, MA) with 4.0×10^6 OCI-Ly10 cells (cell suspension in 0.1 ml IMDM with Matrigel 1:1). When the mean tumor volume reached approximately 175 mm^3, the animals were randomized into one vehicle control group and 7 treatment groups (n=7/group) as described in Table 2a. Mice were then dosed with 20% HPβCD or Compound I-263a and/or tafasitamab over a 3 week period. In the combination treatment groups, I-263a was administered first, followed immediately by the administration of tafasitamab. Tumor growth and body weight were measured twice per week during the treatment and post-treatment periods, and mice were humanely euthanized once they had reached their humane endpoint. Tumors were measured using Vernier calipers and volumes were calculated using standard equation: V=W^2×L/2, where V=volume, W=width, and L=length for the tumor.
A 0.75 mg/mL stock solution of I-263a was formulated weekly in 20% HPβCD and administered intravenously (IV) based on an average body weight using a 0.2 mL dosing volume. Final dose of I-263a received was 7.5 mg/kg. […]

Row | Molecule | Phagocytosis (RAMOS) | Specific killing of lymphoma cell lines (specific cytotoxicity) (lymphoma cell lines) | GRI % ([1]; I-263a 7.5 mg/kg IV BIW) [%] | Tumor volume on Day 25 (±SEM) ([1]; I-263a 7.5 mg/kg IV BIW 3 weeks) | tumor growth inhibition as a single agent (in words) [1] | GRI % ([1]; tafasitamab 3 mg/kg IP BIW) [%] | GRI % ([1]; tafasitamab 10 mg/kg IP BIW) [%] | GRI % ([1]; tafasitamab 20 mg/kg IP BIW) [%] | Tumor volume on Day 25 (±SEM) ([1]; tafasitamab 3 mg/kg IP BIW 3 weeks) | Tumor volume on Day 25 (±SEM) ([1]; tafasitamab 10 mg/kg IP BIW 3 weeks) | Tumor volume on Day 25 (±SEM) ([1]; tafasitamab 20 mg/kg IP BIW 3 weeks)
1 | Cc1sc(C(=O)c2cncnc2N[C@@H]2C[C@H](COS(N)(=O)=O)[C@@H](O)C2)cc1[C@@H]1NCCc2ccc(Cl)cc21 [Compound I-263a, [(1R,2S,4R)-4-{[5-({4-[(1R)-7-chloro-1,2,3,4-tetrahydroisoquinolin-1-yl]-5-methyl-2-thienyl}carbonyl)pyrimidin-4-yl]amino}-2-hydroxycyclopentyl]methyl sulfamate] | effectively phagocytosed | resulted in specific killing | 55 | 615.9 ± 106.4 | inhibits tumor growth |  |  |  |  |  | 
2 | Tafasitamab: humanized monoclonal antibody that targets the antigen CD19, engineered in the IgG Fc-region to enhance ADCC; sequences in Table 1 | effectively phagocytosed | resulted in specific killing |  |  | inhibits tumor growth | 37 | 43 | 36 | 701 ± 94.2 | 745.1 ± 154.2 | 809.2 ± 129.1
